Several values for one entry are separate records, joined by “and”; a condition that tells them apart may be missing. Equal entries are not always repeated.
Tested on: B. vulgatus
Experiment: Inhibitor screen in bacteria, B. vulgatus culture
Type: cell-based, Bacteroides vulgatus ATCC 8482
Settings: FIG. 2c, 100 μM inhibitor, 100 μM bile acid pool, 21 h, replicates 1-3
Procedure: Bacterial Culturing. All bacterial strains were cultured at 37° C. in Cullen-Haiser Gut (CHG) media (which consists of brain heart infusion media (Bacto™ BHI, BD) supplemented with 1% BBL vitamin K1-hemin solution (BD), 1% trace minerals solution (ATCC), 1% trace vitamins solution (ATCC), 5% fetal bovine serum (Hyclone), 1 g/L cellubiose, 1 g/L maltose, and 1 g/L fructose) or BHI^+ (Bacto™ BHI, BD, supplemented with 5 mg/L hemin, and 2.5 uL/L Vitamin K1). All strains were grown under anaerobic conditions in a anaerobic chamber (Coy Lab Products Airlock) with a gas mix of 5% hydrogen and 20% carbon dioxide nitrogen. Escherichia coli was grown aerobically at 37° C. in LB medium supplemented with ampicillin to select for the pET21b plasmid.
Inhibitor Screen in Bacteria. Bacterial cultures were diluted to OD600 of 0.1 in 4 mL BHI^+, containing 100 μM taurine conjugated bile acid pool 100 μM inhibitors. […] After 21 h, serial dilutions were plated on BHI^+ agar to determine cell viability (CFU/mL). […] The cultures were spun down in a centrifuge at 2,500 g for 5 mins to obtain better separation. The organic layer was then removed and the aqueous layer was extracted again using 2 mL of ethyl acetate.

SMILES: C[C@H](CCC(=O)CF)[C@H]1CC[C@H]2[C@@H]3[C@H](O)C[C@@H]4C[C@H](O)CC[C@]4(C)[C@H]3CC[C@]12C [Compound 7]
- % deconjugation of TCA: 0.68% and 0.64% and 0.47%
- % deconjugation of TDCA: 0.90% and 0.17% and 0.81%
- % deconjugation of TUDCA: 1.90% and 3.62% and 0.80%
- % deconjugation of TβMCA: 1.58% and 0.41% and 0.65%
